Assay results as given in patent US8481525B2, “Kinase inhibitors and method of treating cancer with same” (University of Health Network, priority 2009, dated 2013).

Tests used:
[1] = system: HCT116+/− colon cancer cell line; assay: Cell growth inhibition, SRB assay, extended panel; type: cell-based; conditions: Homo sapiens, HCT-116, 120 h, read-out: GI50 Range
Protocol: (§1) The cells were cultured for 5 days before the Sulforhodamine B assay (SRB) was performed to determine the compound's cell growth inhibition activity.
(§2) Sulforhodamine B (purchased from Sigma, Oakville, ON, Canada) is a water-soluble dye that binds to the basic amino acids of the cellular proteins. Thus, colorimetric measurement of the bound dye provides an estimate of the total protein mass that is related to the cell number. the cells are fixed in situ by gently aspirating off the culture media and adding 50 μl ice cold 10% Trichloroacetic Acid (TCA) per well and incubate at 4° C. for 30-60 min, The plates are washed with water five times and allowed to air dry for 5 min. […] Following staining, plates are washed four times with 1% acetic acid to remove unbound dye and then allowed to air dry for 5 min. […] Absorbance is read at 570 nm.
(§3) The percentage (%) of relative growth inhibition was calculated by comparing to DMSO treated only cells (100%). GI50's were determined for compounds with cytotoxic activity. The GI50 was calculated using GraphPad PRISM software (GraphPad Software, Inc., San Diego, Calif., USA).
(§4) The sulforhodamine B assay (SRB) described above was use to assay test compounds against the extended panel (Table 6).

[2] = system: HCT116+/+ colon cancer cell line; assay: Cell growth inhibition, SRB assay, extended panel; type: cell-based; conditions: Homo sapiens, HCT-116, 120 h, read-out: GI50 Range
Protocol: as §1, §2, §3, §4

[3] = system: 184A1 immortalized breast cell line; assay: Cell growth inhibition, SRB assay, extended panel; type: cell-based; conditions: 184A1, 120 h, read-out: GI50 Range
Protocol: as §1, §2, §3, §4

[4] = system: BT474 breast cancer cell line; assay: Cell growth inhibition, SRB assay, extended panel; type: cell-based; conditions: Homo sapiens, BT-474, 120 h, read-out: GI50 Range
Protocol: as §1, §2, §3, §4

[5] = system: SKBR3 breast cancer cell line; assay: Cell growth inhibition, SRB assay, extended panel; type: cell-based; conditions: Homo sapiens, SK-BR-3, 120 h, read-out: GI50 Range
Protocol: as §1, §2, §3, §4

[6] = system: SW 626 ovarian cancer cell line; assay: Cell growth inhibition, SRB assay, extended panel; type: cell-based; conditions: Homo sapiens, SW626, 120 h, read-out: GI50 Range
Protocol: as §1, §2, §3, §4

[7] = system: SK-OV-3 ovarian cancer cell line; assay: Cell growth inhibition, SRB assay, extended panel; type: cell-based; conditions: Homo sapiens, SK-OV-3, 120 h, read-out: GI50 Range
Protocol: as §1, §2, §3, §4

[8] = system: PC-3 prostate cancer cell line; assay: Cell growth inhibition, SRB assay, extended panel; type: cell-based; conditions: 120 h, read-out: GI50 Range
Protocol: as §1, §2, §3, §4

[9] = system: HCT-15 colon cancer cell line; assay: Cell growth inhibition, SRB assay, extended panel; type: cell-based; conditions: Homo sapiens, HCT-15, 120 h, read-out: GI50 Range
Protocol: as §1, §2, §3, §4

[10] = system: human mammary epithelial primary cells (HMEC); assay: Cell growth inhibition, Sulforhodamine B assay (SRB); conditions: 120 h, read-out: Cell Line GI50 Range HMEC
HUV-EC-C cells = assay: In Vitro Angiogenesis Assay (tube formation); conditions: HUV-EC-C cells on ECMatrix, 4 hr; FIGS. 1 and 2
[11] = system: SW620 colon cancer cell line; assay: Cell growth inhibition, Sulforhodamine B assay (SRB); type: cell-based; conditions: Homo sapiens, SW-620, 120 h, read-out: Cell Line GI50 Range SW-620, SW620 colon cancer cell line; 5 days culture; SRB
In short: (§5)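 Growth inhibition is measured by SRB staining after 5 days of culture. Cells are fixed with cold 10% TCA, stained, washed with 1% acetic acid and read at 570 nm. Values are relative to DMSO-treated cells, with GI50 calculated for cytotoxic compounds.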

[12] = system: HCC1954 basal breast cancer cell line; assay: as above; type: cell-based; conditions: Homo sapiens, HCC1954, 120 h, read-out: Cell Line GI50 Range HCC-1954
In short: as §5

Q: How did the GI50 [1] turn out when `CN(C)Cc1ccc(/C=C/c2n[nH]c3cc([C@@H]4C[C@@]45C(=O)Nc4ccccc45)ccc23)cc1` (racemic) [Example A23, (1R*,2S*)-(E)-2-(3-(4-((dimethylamino)methyl)styryl)-1H-indazol-6-yl)spiro[cyclopropane-1,3′-indolin]-2′-one 2,2,2-trifluoroacetate] was run?
A: The GI50 was 1 to 50 µM.

Q: And the GI50 [2]?
A: The GI50 was 1 to 50 µM.

Q: And the GI50 [3]?
A: Its GI50 is 1 to 50 µM.

Q: What about the GI50 [4] of the same molecule?
A: The GI50 was 1 to 50 µM.

Q: What about the GI50 [5] of the same molecule?
A: Its GI50 is 1 to 50 µM.

Q: What about the GI50 [6] of the same molecule?
A: Its GI50 is 1 to 50 µM.

Q: What about the GI50 [7] of the same molecule?
A: The GI50 was 1 to 50 µM.

Q: And the GI50 [8]?
A: The GI50 was 1 to 50 µM.

Q: What about the GI50 [9] of the same molecule?
A: The GI50 was 1 to 50 µM.

Q: What about the GI50 [10] of the same molecule?
A: The GI50 was greater than 10 µM.

Q: What about the “anti-angiogenic effect (tube formation, % of control tube count)” value (HUV-EC-C cells) of the same molecule?
A: Its value is “anti-agiogenic effects at submicromolar concentrations”.

Q: What about the GI50 [11] of the same molecule?
A: The GI50 was less than 0.1 µM.

Q: What about the GI50 [12] of the same molecule?
A: The GI50 was 1 to 10 µM.
